From patent US9221756B2, “Pyrrole derivatives” (priority 2011, dated 2015)

Target: pneumolysin (Streptococcus pneumoniae serotype 2, UniProt Q04IN8)
Assay: Inhibition of the haemolytic activity of pneumolysin (sheep erythrocytes)
Assay type: cell-based
Settings: IC50, inhibition of pneumolysin-induced haemolysis of sheep erythrocytes; class symbols of Table 1

Chain of pneumolysin (Q04IN8 whole entry): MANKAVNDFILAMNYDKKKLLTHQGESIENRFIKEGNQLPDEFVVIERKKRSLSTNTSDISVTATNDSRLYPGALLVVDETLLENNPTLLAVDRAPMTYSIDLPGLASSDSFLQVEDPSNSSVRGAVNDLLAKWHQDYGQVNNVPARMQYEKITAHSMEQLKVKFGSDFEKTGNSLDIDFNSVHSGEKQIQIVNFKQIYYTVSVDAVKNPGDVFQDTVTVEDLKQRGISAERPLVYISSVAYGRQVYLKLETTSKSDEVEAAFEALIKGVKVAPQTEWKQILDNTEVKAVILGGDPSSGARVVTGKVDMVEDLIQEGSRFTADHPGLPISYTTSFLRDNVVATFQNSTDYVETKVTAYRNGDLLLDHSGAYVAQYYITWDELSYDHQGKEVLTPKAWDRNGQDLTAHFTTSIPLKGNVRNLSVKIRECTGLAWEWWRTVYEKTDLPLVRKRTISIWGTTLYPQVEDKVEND

CCN(CC)C(=O)c1c(O)c(O)c(C(=O)N(CC)CC)n1-c1ccc(F)cc1 [UL1-001, N^2,N^2,N^5,N^5-tetraethyl-1-(4-fluorophenyl)-3,4-dihydroxy-1H-pyrrole-2,5-dicarboxamide] and CCN(CC)C(=O)c1c(O)c(O)c(C(=O)N(CC)CC)n1-c1ccc(OC)cc1 [UL1-003, N^2,N^2,N^5,N^5-tetraethyl-3,4-dihydroxy-1-(4-methoxyphenyl)-1H-pyrrole-2,5-dicarboxamide] cannot be ordered by IC50: under 10 µM for the first, under 10 µM for the second.

CCOc1ccc(-n2c(C(=O)N(CC)CC)c(O)c(O)c2C(=O)N(CC)CC)cc1 [UL1-002, 1-(4-ethoxyphenyl)-N^2,N^2,N^5,N^5-tetraethyl-3,4-dihydroxy-1H-pyrrole-2,5-dicarboxamide] and CCOc1ccc(-n2c(C(=O)N(C)C)c(O)c(O)c2C(=O)N(C)C)cc1 [UL1-021, 1-(4-ethoxyphenyl)-3,4-dihydroxy-N^2,N^2,N^5,N^5-tetramethyl-1H-pyrrole-2,5-dicarboxamide] cannot be ordered by IC50: under 10 µM for the first, under 10 µM for the second.

COc1ccc(-n2c(C(=O)N3CCOCC3)c(O)c(O)c2C(=O)N2CCOCC2)cc1 [UL1-004, (3,4-dihydroxy-1-(4-methoxyphenyl)-1H-pyrrole-2,5-diyl)bis(morpholinomethanone)] and CCOc1ccc(-n2c(C(=O)N3CCOCC3)c(O)c(O)c2C(=O)N2CCOCC2)cc1 [UL1-022, (1-(4-ethoxyphenyl)-3,4-dihydroxy-1H-pyrrole-2,5-diyl)bis(morpholinomethanone)] cannot be ordered by IC50: under 10 µM for the first, under 10 µM for the second.

COc1ccc(-n2c(C(=O)N(C)C)c(O)c(O)c2C(=O)N(C)C)cc1 [UL1-005, 3,4-dihydroxy-1-(4-methoxyphenyl)-N^2,N^2,N^5,N^5-tetramethyl-1H-pyrrole-2,5-dicarboxamide] and CCNC(=O)c1c(O)c(O)c(C(=O)N(C)C)n1-c1ccc(OC)cc1 [UL1-024, N^2-ethyl-3,4-dihydroxy-1-(4-methoxyphenyl)-N^5,N^5-dimethyl-1H-pyrrole-2,5-dicarboxamide] cannot be ordered by IC50: under 10 µM for the first, under 10 µM for the second.

O=C(c1c(O)c(O)c(C(=O)N2CCOCC2)n1-c1ccc(F)cc1)N1CCOCC1 [UL1-006, (1-(4-fluorophenyl)-3,4-dihydroxy-1H-pyrrole-2,5-diyl)bis(morpholinomethanone)] and O=C(c1c(O)c(O)c(C(=O)N2CCOCC2)n1-c1ccc(C(F)(F)F)cc1)N1CCOCC1 [UL1-023, (3,4-dihydroxy-1-(4-(trifluoromethyl)phenyl)-1H-pyrrole-2,5-diyl)bis(morpholinomethanone)] cannot be ordered by IC50: under 10 µM for the first, under 10 µM for the second.

Compared with CN(C(=O)c1c(O)c(O)c(C(=O)N(C)c2ccccc2)n1-c1ccc(F)cc1)c1ccccc1 [UL1-007, 1-(4-fluorophenyl)-3,4-dihydroxy-N^2,N^5-dimethyl-N^2,N^5-diphenyl-1H-pyrrole-2,5-dicarboxamide], CN(Cc1ccccc1)C(=O)c1c(O)c(O)c(C(=O)N(C)Cc2ccccc2)n1-c1ccc(F)cc1 [UL1-014, N^2,N^5-dibenzyl-1-(4-fluorophenyl)-3,4-dihydroxy-N^2,N^5-dimethyl-1H-pyrrole-2,5-dicarboxamide] is lower in IC50: 20 to 60 µM for the first, under 10 µM for the second. The second is the more potent here.

CC(C)(C)OC(=O)N1CCN(C(=O)c2c(O)c(O)c(C(=O)N3CCN(C(=O)OC(C)(C)C)CC3)n2-c2ccc(F)cc2)CC1 [UL1-009, di-tert-butyl 4,4′-(1-(4-fluorophenyl)-3,4-dihydroxy-1H-pyrrole-2,5-dicarbonyl)bis(piperazine-1-carboxylate)] and COc1ccc(-n2c(C(=O)N3CCN(C(=O)OC(C)(C)C)CC3)c(O)c(O)c2C(=O)N2CCN(C(=O)OC(C)(C)C)CC2)cc1 [UL1-015, di-tert-butyl 4,4′-(3,4-dihydroxy-1-(4-methoxyphenyl)-1H-pyrrole-2,5-dicarbonyl)bis(piperazine-1-carboxylate)] cannot be ordered by IC50: under 10 µM for the first, under 10 µM for the second.

CC(=O)N1CCN(C(=O)c2c(O)c(O)c(C(=O)N3CCN(C(C)=O)CC3)n2-c2ccc(F)cc2)CC1 [UL1-010, 1,1′-(4,4′-(1-(4-fluorophenyl)-3,4-dihydroxy-1H-pyrrole-2,5-dicarbonyl)bis(piperazine-4,1-diyl))diethanone] and COc1ccc(-n2c(C(=O)N3CCN(C(C)=O)CC3)c(O)c(O)c2C(=O)N2CCN(C(C)=O)CC2)cc1 [UL1-033, 1,1′-(4,4′-(3,4-dihydroxy-1-(4-methoxyphenyl)-1H-pyrrole-2,5-dicarbonyl)bis(piperazine-4,1-diyl))diethanone] cannot be ordered by IC50: under 10 µM for the first, under 10 µM for the second.

O=C(c1c(O)c(O)c(C(=O)N2CCCCC2)n1-c1ccc(F)cc1)N1CCCCC1 [UL1-011, (1-(4-fluorophenyl)-3,4-dihydroxy-1H-pyrrole-2,5-diyl)bis(piperidin-1-ylmethanone)] and COc1ccc(-n2c(C(=O)N3CCCCC3)c(O)c(O)c2C(=O)N2CCCCC2)cc1 [UL1-018, (3,4-dihydroxy-1-(4-methoxyphenyl)-1H-pyrrole-2,5-diyl)bis(piperidin-1-ylmethanone)] cannot be ordered by IC50: under 10 µM for the first, under 10 µM for the second.

CC(C)N(C)C(=O)c1c(O)c(O)c(C(=O)N(C)C(C)C)n1-c1ccc(F)cc1 [UL1-013, 1-(4-fluorophenyl)-3,4-dihydroxy-N^2,N^5-diisopropyl-N^2,N^5-dimethyl-1H-pyrrole-2,5-dicarboxamide] and CC(C)N(C(=O)c1c(O)c(O)c(C(=O)N(C(C)C)C(C)C)n1-c1ccc(F)cc1)C(C)C [UL1-017, 1-(4-fluorophenyl)-3,4-dihydroxy-N^2,N^2,N^5,N^5-tetraisopropyl-1H-pyrrole-2,5-dicarboxamide] cannot be ordered by IC50: under 10 µM for the first, under 10 µM for the second.

COc1ccc(-n2c(C(=O)N3CCNCC3)c(O)c(O)c2C(=O)N2CCNCC2)cc1 [UL1-016, (3,4-dihydroxy-1-(4-methoxyphenyl)-1H-pyrrole-2,5-diyl)bis(piperazin-1-ylmethanone)] and COc1ccc(-n2c(C(=O)N(C)C)c(O)c(O)c2C(=O)N2CCN(C)CC2)cc1 [UL1-027, 3,4-dihydroxy-1-(4-methoxyphenyl)-N,N-dimethyl-5-(4-methylpiperazine-1-carbonyl)-1H-pyrrole-2-carboxamide] cannot be ordered by IC50: under 10 µM for the first, under 10 µM for the second.

COc1ccccc1-n1c(C(=O)N(C)C)c(O)c(O)c1C(=O)N(C)C [UL1-019, 3,4-dihydroxy-1-(2-methoxyphenyl)-N^2,N^2,N^5,N^5-tetramethyl-1H-pyrrole-2,5-dicarboxamide] and CN(C)C(=O)c1c(O)c(O)c(C(=O)N(C)C)n1-c1ccc(C(F)(F)F)cc1 [UL1-028, 3,4-dihydroxy-N^2,N^2,N^5,N^5-tetramethyl-1-(4-(trifluoromethyl)phenyl)-1H-pyrrole-2,5-dicarboxamide] cannot be ordered by IC50: under 10 µM for the first, under 10 µM for the second.

COc1ccccc1-n1c(C(=O)N2CCOCC2)c(O)c(O)c1C(=O)N1CCOCC1 [UL1-020, (3,4-dihydroxy-1-(2-methoxyphenyl)-1H-pyrrole-2,5-diyl)bis(morpholinomethanone)] and COc1ccc(-n2c(C(=O)N(C)C)c(O)c(O)c2C(=O)N2CCOCC2)cc1 [UL1-026, 3,4-dihydroxy-1-(4-methoxyphenyl)-N,N-dimethyl-5-(morpholine-4-carbonyl)-1H-pyrrole-2-carboxamide] cannot be ordered by IC50: under 10 µM for the first, under 10 µM for the second.

COc1ccc(-n2c(C(=O)N(C)C)c(O)c(O)c2C(=O)N2CCCCC2)cc1 [UL1-025, 3,4-dihydroxy-1-(4-methoxyphenyl)-N,N-dimethyl-5-(piperidine-1-carbonyl)-1H-pyrrole-2-carboxamide] and COc1ccc(-n2c(C(=O)OC(C)C)c(O)c(O)c2C(=O)N(C)C)cc1 [UL1-035, isopropyl 5-(dimethylcarbamoyl)-3,4-dihydroxy-1-(4-methoxyphenyl)-1H-pyrrole-2-carboxylate] cannot be ordered by IC50: under 10 µM for the first, under 10 µM for the second.

CN(C)C(=O)c1ccc(-n2c(C(=O)N(C)C)c(O)c(O)c2C(=O)N(C)C)cc1 [UL1-029, 1-(4-(dimethylcarbamoyl)phenyl)-3,4-dihydroxy-N^2,N^2,N^5,N^5-tetramethyl-1H-pyrrole-2,5-dicarboxamide] and CCOC(=O)c1c(O)c(O)c(C(=O)N(C)C)n1-c1ccc(F)cc1 [UL1-032, ethyl 5-(dimethylcarbamoyl)-1-(4-fluorophenyl)-3,4-dihydroxy-1H-pyrrole-2-carboxylate] cannot be ordered by IC50: under 10 µM for the first, under 10 µM for the second.

First: COc1ccc(-n2c(C(=O)N(C)C)c(O)c(O)c2S(=O)(=O)NC(=O)OC(C)(C)C)cc1 [UL1-030, tert-butyl (5-(dimethylcarbamoyl)-3,4-dihydroxy-1-(4-methoxyphenyl)-1H-pyrrol-2-yl)sulfonylcarbamate]
Second: COc1ccc(-n2c(C(=O)OC(C)(C)C)c(O)c(O)c2C(=O)N(C)C)cc1 [UL1-036, tert-butyl 5-(dimethylcarbamoyl)-3,4-dihydroxy-1-(4-methoxyphenyl)-1H-pyrrole-2-carboxylate]
The IC50 of the first is higher: 20 to 60 µM for the first, under 10 µM for the second. The second is the more potent here.

Compared with COc1ccc(-n2c(C#N)c(O)c(O)c2C(=O)N(C)C)cc1 [UL1-031, 5-cyano-3,4-dihydroxy-1-(4-methoxyphenyl)-N,N-dimethyl-1H-pyrrole-2-carboxamide], COc1ccc(-n2c(C#N)c(O)c(O)c2C#N)cc1 [UL1-034, 3,4-dihydroxy-1-(4-methoxyphenyl)-1H-pyrrole-2,5-dicarbonitrile] is higher in IC50: under 10 µM for the first, 20 to 60 µM for the second. The first is the more potent here.

CCOC(=O)c1c(O)c(O)c(C(=O)N2CCN(C)CC2)n1-c1ccc(OC)cc1 [UL1-037, ethyl 3,4-dihydroxy-1-(4-methoxyphenyl)-5-(4-methylpiperazine-1-carbonyl)-1H-pyrrole-2-carboxylate] and CCOC(=O)c1c(O)c(O)c(C(=O)N2CCOCC2)n1-c1ccc(OC)cc1 [UL1-040, ethyl 3,4-dihydroxy-1-(4-methoxyphenyl)-5-(morpholine-4-carbonyl)-1H-pyrrole-2-carboxylate] cannot be ordered by IC50: under 10 µM for the first, under 10 µM for the second.

Compared with CCCCN(CCCC)C(=O)c1c(O)c(O)c(C(=O)OCC)n1-c1ccc(OC)cc1 [UL1-038, ethyl 5-(dibutylcarbamoyl)-3,4-dihydroxy-1-(4-methoxyphenyl)-1H-pyrrole-2-carboxylate], CCOC(=O)c1c(O)c(O)c(C#N)n1-c1ccc(F)cc1 [UL1-039, ethyl 5-cyano-1-(4-fluorophenyl)-3,4-dihydroxy-1H-pyrrole-2-carboxylate] is higher in IC50: under 10 µM for the first, 20 to 60 µM for the second.

Same assay, conditions: IC50, inhibition of pneumolysin-induced haemolysis of sheep erythrocytes; specific values

In order of falling IC50:
1. CCNC(=O)c1c(O)c(O)c(C(=O)N(C)C)n1-c1ccc(OC)cc1 [UL1-024, N^2-ethyl-3,4-dihydroxy-1-(4-methoxyphenyl)-N^5,N^5-dimethyl-1H-pyrrole-2,5-dicarboxamide]  0.182 µM
2. COc1ccc(-n2c(C(=O)N3CCOCC3)c(O)c(O)c2C(=O)N2CCOCC2)cc1 [UL1-004, (3,4-dihydroxy-1-(4-methoxyphenyl)-1H-pyrrole-2,5-diyl)bis(morpholinomethanone)]  0.17 µM
3. COc1ccc(-n2c(C(=O)N(C)C)c(O)c(O)c2C(=O)N(C)C)cc1 [UL1-005, 3,4-dihydroxy-1-(4-methoxyphenyl)-N^2,N^2,N^5,N^5-tetramethyl-1H-pyrrole-2,5-dicarboxamide]  0.15 µM
4. COc1ccc(-n2c(C(=O)OC(C)C)c(O)c(O)c2C(=O)N(C)C)cc1 [UL1-035, isopropyl 5-(dimethylcarbamoyl)-3,4-dihydroxy-1-(4-methoxyphenyl)-1H-pyrrole-2-carboxylate]  0.15 µM
5. CN(C)C(=O)c1c(O)c(O)c(C(=O)N(C)C)n1-c1ccc(C(F)(F)F)cc1 [UL1-028, 3,4-dihydroxy-N^2,N^2,N^5,N^5-tetramethyl-1-(4-(trifluoromethyl)phenyl)-1H-pyrrole-2,5-dicarboxamide]  0.068 µM
